# Assay results published in patent US6452005B1, “JAK-3 inhibitors for treating allergic disorders” (Parker Hughes Institute, priority 1999, dated 2002).
# pIC50: −log10 of the molar value.
# How the values were obtained:
# recombinant JAK1 = target: T1, recombinant JAK1 (Homo sapiens, UniProt P23458); experiment: Immune complex kinase assay, recombinant JAK1; format: biochemical; details: FIG. 6C & D
# T1 construct: made in house; host or cells: Sf21 insect cells, baculovirus
# Description: (§1) Immune Complex Kinase Assays.
# human JAK3 [1] = target: T2, human JAK3 (Homo sapiens, UniProt P52333); experiment: JAK3 kinase inhibition (Table 1 IC50, immune complex kinase assay); format: biochemical; details: Table 1; measured inhibition values for JAK3 kinase
# T2 construct: KL-2 EBV-transformed human lymphoblastoid B cells (native JAK3 kinase assays); endogenous in cells; host or cells: KL-2 EBV-transformed human lymphoblastoid B cell line
# T2 sequence (P52333 1-1124): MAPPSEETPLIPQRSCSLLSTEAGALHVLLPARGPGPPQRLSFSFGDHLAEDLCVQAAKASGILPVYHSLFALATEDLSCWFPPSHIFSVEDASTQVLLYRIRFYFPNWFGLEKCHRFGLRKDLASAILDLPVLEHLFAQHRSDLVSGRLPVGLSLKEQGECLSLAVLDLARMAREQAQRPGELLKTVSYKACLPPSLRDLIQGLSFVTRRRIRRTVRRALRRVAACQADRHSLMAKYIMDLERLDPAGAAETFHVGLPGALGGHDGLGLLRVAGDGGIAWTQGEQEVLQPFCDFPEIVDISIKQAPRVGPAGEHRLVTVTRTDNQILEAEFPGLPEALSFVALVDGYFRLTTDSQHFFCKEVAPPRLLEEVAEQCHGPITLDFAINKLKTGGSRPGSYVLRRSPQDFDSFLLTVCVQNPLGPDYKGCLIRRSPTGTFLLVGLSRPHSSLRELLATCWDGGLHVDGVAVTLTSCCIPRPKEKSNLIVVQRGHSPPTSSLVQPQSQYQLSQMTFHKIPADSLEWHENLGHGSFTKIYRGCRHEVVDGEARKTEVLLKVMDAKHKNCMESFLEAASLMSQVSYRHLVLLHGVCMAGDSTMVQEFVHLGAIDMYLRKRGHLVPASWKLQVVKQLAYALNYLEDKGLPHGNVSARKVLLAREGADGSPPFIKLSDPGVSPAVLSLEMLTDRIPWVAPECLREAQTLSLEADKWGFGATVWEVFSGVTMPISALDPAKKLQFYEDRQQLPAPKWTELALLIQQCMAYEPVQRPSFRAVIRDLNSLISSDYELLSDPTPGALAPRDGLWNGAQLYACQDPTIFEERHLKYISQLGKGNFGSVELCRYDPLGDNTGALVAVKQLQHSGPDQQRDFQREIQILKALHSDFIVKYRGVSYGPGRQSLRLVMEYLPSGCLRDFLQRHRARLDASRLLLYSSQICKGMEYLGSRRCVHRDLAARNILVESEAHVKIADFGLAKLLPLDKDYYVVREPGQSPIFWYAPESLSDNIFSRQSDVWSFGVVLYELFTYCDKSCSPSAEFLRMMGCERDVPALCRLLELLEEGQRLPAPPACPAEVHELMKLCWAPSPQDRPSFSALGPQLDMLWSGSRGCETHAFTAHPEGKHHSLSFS
# Experimental: as §1
# (§2) KL-2 EBV-transformed human lymphoblastoid B cells (native JAK3 kinase assays) or insect ovary cells (recombinant JAK3 kinase assays) were lysed with NP-40 lysis buffer (50 mM Tris, pH 8, 150 mM NaCl, 5 mM EDTA, 1% NP-40, 100 μM sodium orthovanadate, 100 μM sodium molybdate, 8 μg/ml aprotinin, 5 μg/ml leupeptin, and 500 μM PMSF) and centrifuged 10 minutes at 13000×g to remove insoluble material. Samples were immunoprecipitated with antisera prepared against JAK3. The antisera were diluted and immune complexes collected by incubation with 15 μl protein A Sepharose. After 4 washes with NP-40 lysis buffer, the protein A Sepharose beads were washed once in kinase buffer (20 mM MOPS, pH 7.0, 10 mM MgCl2) and resuspended in the same buffer. Reactions were initiated by the addition of 25 μCi γ[^32P] ATP (5000 Ci/mMole) and unlabeled ATP to a final concentration of 5 μM. Reactions were terminated by boiling for 4 min in SDS sample buffer. Samples were run on 9.5% SDS polyacrylamide gels and labeled proteins will be detected by autoradiography. Following electrophoresis, kinase gels were dried onto Whatman 3M filter paper and subjected to phosphoimaging on a Molecular Imager (Bio-Rad, Hercules, Calif.) as well as autoradiography on film. For each drug concentration, a kinase activity index (KA) was determined by comparing the kinase activity in phosphorimager units (PIU) to that of the baseline sample. In some experiments, cold kinase assays were performed, as described (Uckun et. al., 1998, Clin. Cancer Res., 4:901-912).
# SYK = target: T3, SYK (Homo sapiens, UniProt P43405); experiment: Immune complex kinase assay, SYK from Sf21 cells; format: biochemical; details: concentrations as high as 350 μM
# T3 construct: made in house; host or cells: Sf21 insect cells, baculovirus
# Description: as §1
# human JAK3 [2] = target: T2, human JAK3; experiment: Immune complex kinase assay, JAK3 immunoprecipitated from KL2 EBV-transformed lymphoblastoid B cell line; format: biochemical; details: JAK3 immunoprecipitated from KL2 cells
# Experimental: as §2, with “Following electrophoresis, kinase gels were dried onto Whatman 3M filter paper and subjected to phosphoimaging on a Molecular Imager (Bio-Rad, Hercules, Calif.) as well as autoradiography on film.” left out, “In some experiments, cold kinase assays were performed, as described (Uckun et. al., 1998, Clin. Cancer Res., 4:901-912).” left out
# BALB/c mice = experiment: Passive systemic anaphylaxis model; format: in vivo; details: pretreated mice
# Experimental: FIG. 14B is a photograph showing plasma extravasation during systemic anaphylaxis, evaluated as described in the Examples.
# FIG. 14C is a photograph showing results of histopathologic evaluation of mast cell degranulation. Ears were removed 1 hour after the antigen challenge from vehicle treated as well as WHI-P131 treated mice. Formalin-fixed thin sections (3-5 μm) of ears from were stained with Avidin-FITC.
# FIG. 4D is a graph showing blood histamine levels of sensitized mice analyzed after antigen challenge. Blood was collected by retro-orbital bleeding and histamine levels were measured by ELISA. Histamine levels are expressed as nM. The histamine levels in the blood of PBS treated mice and IgE/antigen stimulated mice was 493±131 and 7527±2102 nM respectively. The results are the mean±SEM values; n=3.
# To induce passive systemic anaphylaxis, BALB/c mice were sensitized with […] DNP-IgE intravenously. At 24 hours DNP-BSA (2 mg) was administered intravenously with 0.5% Evans blue (200 μl). For assessment of vascular leak, animals were sacrificed 30 minutes after the antigen challenge and their foot pads were examined for blue coloration. Histamine levels in plasma were measured 5 minutes after the antigen challenge. […] For histopathologic evaluation of tissue mast cell degranulation, ears of mice were removed 1 hour after the DNP-BSA injection and fixed in 10 percent buffered formalin. Processed thin sections (3-5 μm) were stained with Avidin-FITC (6.25 μg/ml) for 2 hours, washed with PBS to remove unbound dye and then mounted in buffered glycerol, 30 mM triethylenediamine, pH 8.6 (Malaviya et. al., 1994, J. Clin. Invest., 93:1645-1653). In the murine model for antigen induced active anaphylaxis, mice were sensitized with 2 mg BSA in 200 μl aluminum hydroxide gel (Reheis Inc., Berkeley, N.J.). Ten days later anaphylactic shock was induced by the i.v. injection of the animals with 200 μg BSA.
# T1 sequence (P23458 whole entry): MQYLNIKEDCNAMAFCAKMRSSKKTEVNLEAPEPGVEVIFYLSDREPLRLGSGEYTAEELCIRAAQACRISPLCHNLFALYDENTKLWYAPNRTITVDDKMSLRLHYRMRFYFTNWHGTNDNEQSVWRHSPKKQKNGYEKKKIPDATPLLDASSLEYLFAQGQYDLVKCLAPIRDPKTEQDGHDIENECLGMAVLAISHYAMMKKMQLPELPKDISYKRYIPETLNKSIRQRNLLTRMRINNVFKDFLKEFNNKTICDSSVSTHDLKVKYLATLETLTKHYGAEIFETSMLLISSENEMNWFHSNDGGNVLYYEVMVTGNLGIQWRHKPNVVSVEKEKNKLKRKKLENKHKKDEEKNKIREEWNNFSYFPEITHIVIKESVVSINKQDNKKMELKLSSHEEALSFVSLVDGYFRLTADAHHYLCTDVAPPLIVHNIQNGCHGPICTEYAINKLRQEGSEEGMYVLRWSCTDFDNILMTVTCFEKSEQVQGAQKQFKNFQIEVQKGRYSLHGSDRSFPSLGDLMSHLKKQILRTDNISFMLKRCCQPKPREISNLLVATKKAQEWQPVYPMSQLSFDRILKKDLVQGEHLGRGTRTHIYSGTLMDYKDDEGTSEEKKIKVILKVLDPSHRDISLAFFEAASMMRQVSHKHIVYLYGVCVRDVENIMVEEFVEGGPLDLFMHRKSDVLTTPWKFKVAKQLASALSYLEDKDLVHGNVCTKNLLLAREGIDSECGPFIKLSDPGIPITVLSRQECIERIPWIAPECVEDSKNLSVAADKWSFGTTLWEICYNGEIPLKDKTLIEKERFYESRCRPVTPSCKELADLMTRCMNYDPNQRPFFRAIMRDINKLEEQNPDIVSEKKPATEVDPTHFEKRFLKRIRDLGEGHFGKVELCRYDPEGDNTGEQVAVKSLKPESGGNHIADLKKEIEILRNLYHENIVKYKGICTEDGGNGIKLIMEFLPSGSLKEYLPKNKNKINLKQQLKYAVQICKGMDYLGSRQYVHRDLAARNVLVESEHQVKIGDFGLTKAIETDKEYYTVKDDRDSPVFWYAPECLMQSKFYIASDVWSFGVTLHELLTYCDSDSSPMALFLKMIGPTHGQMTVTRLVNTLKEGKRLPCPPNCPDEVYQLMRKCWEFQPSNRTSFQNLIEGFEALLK
smiles,measurement,setting,value
"COc1cc2ncnc(Nc3ccc(O)cc3)c2cc1OC [WHI-P131, 4-(4′-Hydroxylphenyl)-amino-6,7-dimethoxyquinazoline]",inhibitory activity against recombinant JAK1,recombinant JAK1,did not exhibit any detectable inhibitory activity
same,pIC50,human JAK3 [1],4.11
same,effect on enzymatic activity of SYK,SYK,did not affect
same,pIC50,human JAK3 [2],5.04
same,plasma histamine response,BALB/c mice; 5 minutes after antigen challenge,substantially reduced
same,blue coloring of foot pads (plasma exudation),BALB/c mice; 30 min after antigen challenge,no significant blue coloring
same,fluorescence intensity of avidin-FITC stained tissue mast cells (degranulation),"BALB/c mice; ears, after IgE/antigen challenge",no reduction in fluorescence intensity
